Where a name gives a salt, the structure may show the parent alone. Read-outs that look alike come from different tables or passages of the source. Values belong to the compound of their own block, whether it stands above or below them.
Key:
[1] = amine bond, 60.0 °C
MCL-1 = MCL-1 (Homo sapiens (Human), UniProt Q07820, K194A/K197A/R201A); assay: Protein-protein interaction assay MCL-1/Noxa BH3 peptide (MCL-1 assay, TR-FRET); assay type: binding; details: MBP-MCL-1 / Noxa BH3 peptide, median
Method: Protein-Protein Interaction Assay: MCL-1/Noxa BH3 Peptide (MCL-1 Assay)
The dose-dependent inhibition by the compounds described in this invention of the interaction between MCL-1 and the BH3 domain of Noxa (both human) was determined using a steady state binding competition assay with time-resolved fluorescence energy transfer (TR-FRET) readout. For that purpose MCL-1 (amino acids 173-329, N-terminal fused to Maltose Binding Protein (MBP) SEQ ID 1) and a synthetic Noxa BH3-derived peptide of sequence Biotin-PEG2-PEG2-PAELEVE-Nva-ATQLRRFGDKLNFRQKLL-amide (SEQ ID 2) served as protein receptor and tracer ligand respectively. The MBP-MCL-1 was purchased from Beryllium (Bedford, Mass., USA). The expression and purification of this protein construct has been described elsewhere (DOI:10.1371/journal.pone.0125010). The Noxa BH3-derived peptide can be obtained from e.g. Biosyntan (Berlin, Germany).
In the assay 11 different concentrations of each compound (0.1 nM, 0.33 nM, 1.1 nM, 3.8 nM, 13 nM, 44 nM, 0.15 μM, 0.51 μM, 1.7 μM, 5.9 μM and 20 μM) were typically measured as duplicates in the same microtiter plate. For that, 100-fold concentrated DMSO solutions were prepared by serial dilutions (1:3.4) of a 2 mM stock solution in a clear, 384-well microtiter plate (Greiner Bio-One, Frickenhausen, Germany). From there, 50 nl were transferred in a dark test plate (Greiner Bio-One, Frickenhausen, Germany). The assay was initiated by addition of 2 μl of a 2.5-fold concentrated MBP-MCL-1 solution (usually for a 1 nM end concentration in 5 μl reaction volume) in aqueous assay buffer [50 mM Tris/HCl pH 7, 100 mM sodium chloride (NaCl), 50 mM potassium fluoride (KF), 0.005% Tween-20, 2 mM DTT, 0.1% bovine gamma globulin (BGG)] to the compounds in the assay plate. This was followed by a 10-minute incubation step at 22° C. for pre-equilibration of the putative complex between MBP-MCL-1 and the compounds. After that, 3 μl of a 1.67-fold concentrated solution (in assay buffer) consisting of Noxa BH3-derived peptide (1 nM end concentration) and TR-FRET detection reagents [1.67 nM anti-MBP-Eu cryptate and 1.67 nM streptavidin-XL665 (both from Cisbio Bioassays, Codolet, France)], were added.
The mixture was incubated in the dark for one hour at 22° C. and then overnight at 4° C. The formation of MCL-1/Noxa complexes was determined by measuring the resonance energy transfer of the anti-MBP-Eu-cryptate antibody to the streptavidin-XL665 present in the reaction. For that purpose, the fluorescence emission at 620 nm and 665 nm after excitation at 330-350 nm was measured in a TR-FRET measuring instrument, for instance a Rubystar or a Pherastar (both from BMG Lab Technologies, Offenburg, Germany) or a Viewlux (Perkin-Elmer). The ratio of the emission at 665 nm and at 622 nm was used as indicator of the amount of MCL-1/NOXA complexes present.
The resulting data (ratio) were normalized, taking 0% inhibition as the mean value of control measurements (usually 32 data points) where all reagents were included. In this case 50 nl DMSO were used instead of compounds. A 100% inhibition corresponded to the mean value of control measurements (usually 32 data points) where all reagents except MCL-1 were included. IC50 values were determined by regression analysis based on a 4 parameter equation (minimum, maximum, IC50, Hill; Y=Max+(Min−Max)/(1+(X/IC50)^HiII) using the Screener Software (Genedata).

SUDHL5 [2] = assay: Induction of caspase-3/7 activity (Assay 4), SUDHL5; assay type: cell-based; details: caspase-3/7 induction, median
Method: (§1) Cellular Assays Assay 4 Induction of Caspase-3/7 Activity Upon Treatment of Cells with Selected Compounds
(§2) The BH3-domain of MCL-1 sequesters pro-apoptotic proteins, thereby inhibiting apoptosis. In contrast, MCL-1 inhibitors are expected to antagonize this effect leading to an increase in apoptosis, which can be determined by measuring the activity of caspase-3/7.
(§3) The activity of caspase-3/7 was determined in DLBCL (Diffuse large B-cell lymphoma) cell lines (SUDHL5 and SUDHL10) upon treatment with different compounds, using the Caspase-Glo® 3/7 reagent from Promega (G8092).
(§4) Rim wells were excluded. The cells were incubated for 3 hours in a humidified incubator at 37° C.
(§5) For the evaluation of the results, the background measured with “medium-only” was subtracted from all other values. […] The Bella DRC Master Sheet was used to calculate EC50s, with fixed C0=1 and CI=plateau/max induction for the reference compound.

SUDHL10 [3] = assay: Induction of caspase-3/7 activity (Assay 4), SUDHL10; assay type: cell-based; details: caspase-3/7 induction, median
Method: as §1, §2, §3, §4, §5

SUDHL5 [4] = assay: Antiproliferation assay (Assay 7), SUDHL5; assay type: cell-based; details: CellTiter-Glo, median, read-out: Antiproli SUDHL5 [M] (median) IC50
Method: (§6) Assessment of the Anti-Proliferative Effect of Compounds in Different Cell Lines
(§7) The impact of compounds on the proliferation of different cell lines was assessed using the CellTiter-Glo® Luminescent Cell Viability reagent from Promega (G7573).
(§8) In parallel, cells were plated in a reference (day 0) plate for time zero determination.
(§9) Rim wells were excluded. The cells were incubated for 72 hours in a humidified incubator at 37° C. The day 0 plate was measured by adding 30 μL/well of CTG solution (CellTiter-Glo® Luminescent Cell Viability reagent, Promega G7573) to time zero wells in the reference plate followed by a 10 minutes incubation and luminescence reading at 0.1 ms. using the PHERAstar FS microplate reader (BMG Labtech).
(§10) After 72 hours incubation, the treated plates were measured in the same way as the day 0 plate mentioned above.

MV-4-11 = assay: Antiproliferation assay (Assay 7), MV-4-11; assay type: cell-based; details: CellTiter-Glo, several values per example
Method: as §6, §7, §8, §9, §10

A2780 = assay: Antiproliferation assay (Assay 7), A2780; assay type: cell-based; details: CellTiter-Glo, several values per example
Method: as §6, §7, §8, §9, §10

SUDHL5 [5] = assay: Induction of cytotoxicity (Assay 6), SUDHL5; details: read-out: Cytotox SUDHL5 [M] (median) IC50, CellTiter-Glo, 5 hours, SUDHL5
SUDHL10 [6] = assay: Induction of cytotoxicity (Assay 6), SUDHL10; details: read-out: Cytotox SUDHL10 [M] (median) IC50, CellTiter-Glo, 5 hours, SUDHL10
AMO-1 = assay: Antiproliferation assay (Assay 7), AMO-1; assay type: cell-based; details: CellTiter-Glo, 72 hours, several values per example, read-out: Antiproli AMO-1 [M] IC50
Method: as §6, §7, §8, §9, §10

HMC-1-8 = assay: Antiproliferation assay (Assay 7), HMC-1-8; assay type: cell-based; details: CellTiter-Glo, 72 hours, several values per example, read-out: Antiproli HMC-1-8 [M] IC50
Method: as §6, §7, §8, §9, §10

SUDHL5 [7] = system: SUDHL5
SUDHL10 [8] = system: SUDHL10
[9] = Homo sapiens, MV4-11, 72 h, read-out: Antiproli MV-4-11 [M] IC50
[10] = Homo sapiens, A2780, 72 h, read-out: Antiproli A2780 [M] IC50

Sequence of MCL-1 (Q07820 whole entry K194A/K197A/R201A, looked up): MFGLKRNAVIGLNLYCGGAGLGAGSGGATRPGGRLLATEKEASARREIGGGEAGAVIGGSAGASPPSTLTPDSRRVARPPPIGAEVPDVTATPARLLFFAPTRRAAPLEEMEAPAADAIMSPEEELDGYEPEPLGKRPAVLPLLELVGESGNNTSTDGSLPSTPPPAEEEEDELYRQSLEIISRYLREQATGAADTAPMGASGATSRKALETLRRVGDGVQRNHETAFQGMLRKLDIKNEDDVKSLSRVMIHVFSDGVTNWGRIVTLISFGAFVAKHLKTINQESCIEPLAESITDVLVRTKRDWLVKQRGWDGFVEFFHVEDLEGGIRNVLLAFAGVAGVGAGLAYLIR

Structure (SMILES): CCOC(=O)c1c(CCCOc2cccc3cc(F)ccc23)c2ccc(Cl)c3c2n1CCCS(=O)(=O)N(C)C(CCC1CCOCC1)c1nn(C)c(CC)c1-3 (racemic)
ring closure, yield of all isomers ([1]; from CCOC(=O)c1[nH]c2c(-c3c(C(CCC4CCOCC4)N(C)S(=O)(=O)CCCCl)nn(C)c3CC)c(Cl)ccc2c1CCCOc1cccc2cc(F)ccc12, cesium carbonate, acetonitrile, 34.4 mM, 48.0 h): 77%

Structure (SMILES): CCOC(=O)c1c(CCCOc2cccc3cc(F)ccc23)c2ccc(Cl)c3c2n1CCCS(=O)(=O)N(C)C(CCN1CCOCC1)c1nn(C)c(CC)c1-3 (racemic)
ring closure, yield of all isomers ([1]; from CCOC(=O)c1[nH]c2c(-c3c(C(CCN4CCOCC4)N(C)S(=O)(=O)CCCCl)nn(C)c3CC)c(Cl)ccc2c1CCCOc1cccc2cc(F)ccc12, cesium carbonate, acetonitrile, 49.5 mM, 48.0 h): 44.9%

Structure (SMILES): CCOC(=O)c1c(CCCOc2cccc3ccccc23)c2cccc3c2n1CCCS(=O)(=O)N(C)C(C)c1nn(C)c(CC)c1-3 (racemic)
ring closure, yield of all isomers ([1]; from CCOC(=O)c1[nH]c2c(-c3c(C(C)N(C)S(=O)(=O)CCCCl)nn(C)c3CC)cccc2c1CCCOc1cccc2ccccc12, Cs2CO3, MeCN, 50.0 mM, 18.0 h): 81.9%

IC50 (MCL-1): 0.0074 µM
EC50 (SUDHL5 [2]; Homo sapiens, SU-DHL-5, 3 h): 3.1 µM
EC50 (SUDHL10 [3]; Homo sapiens, SU-DHL10, 3 h): 14 µM
IC50 (SUDHL5 [4]; Homo sapiens, SU-DHL-5, 72 h): 3.8e-06 M
IC50 (MV-4-11; 72 hours, read-out: Antiproli MV-4-11 [M] IC50): 1.28e-05 M
IC50 (MV-4-11; [9]): 1.54e-05 M
IC50 (A2780; 72 hours, read-out: Antiproli A2780 [M] IC50): > 3.3e-05 M
IC50 (A2780; [10]): 1.68e-05 M
Structure (SMILES): Cc1c2c(nn1C)CN(C)S(=O)(=O)CCCC1C(C(=O)O)=C(CCCOc3cccc4ccccc34)c3cccc-2c31 (racemic) [Example 10, (rac)-2,3,14-Trimethyl-7-[3-(1-naphthyloxy)propyl]-11,12,14,15-tetrahydro-2H,10H-pyrazolo[3′,4′:4,5][1,2,8]thiadiazacycloundecino[6,7,8-hi]indole-8-carboxylic acid 13,13-dioxide]
IC50 (SUDHL5 [5]; Homo sapiens, SU-DHL-5, 5 h): 3.8e-06 M
IC50 (SUDHL10 [6]; Homo sapiens, SU-DHL10, 5 h): 1.2e-05 M

Structure (SMILES): CCc1c2c(nn1C)C(CCN1CCOCC1)N(C)S(=O)(=O)CCCn1c(C(=O)O)c(CCCOc3cccc4cc(F)ccc34)c3ccc(Cl)c-2c31 (racemic) [Example 74, (rac) 4-chloro-3-ethyl-7-{3-[(6-fluoronaphthalen-1-yl)oxy]propyl}-2,14-dimethyl-15-[2-(morpholin-4-yl)ethyl]-13,13-dioxo-10,11,12,13,14,15-hexahydro-2H-13lambda6-pyrazolo[3′,4′:4,5][1,2,8]thiadiazacycloundecino[6,7,8-hi]indole-8-carboxylic acid (Racemate 2)]
IC50 (MCL-1): 0.0011 µM
EC50 (SUDHL5 [2]; 3 hours): 0.011 µM
EC50 (SUDHL10 [3]; 3 hours): 0.014 µM
IC50 (SUDHL5 [4]; 72 hours): 9.9e-09 M
IC50 (AMO-1): 3.9e-08 M
IC50 (HMC-1-8): 3.2e-07 M
IC50 (SUDHL5 [7]): 0.013 µM
IC50 (SUDHL10 [8]): 0.017 µM

Structure (SMILES): CCc1c2c(nn1C)C(CCN1CCOCC1)N(C)S(=O)(=O)CCCn1c(C(=O)O)c(CCCOc3cccc4cc(F)ccc34)c3ccc(Cl)c-2c31 (single isomer, unassigned) [Example 72, 4-chloro-3-ethyl-7-{3-[(6-fluoronaphthalen-1-yl)oxy]propyl}-2,14-dimethyl-15-[2-(morpholin-4-yl)ethyl]-13,13-dioxo-10,11,12,13,14,15-hexahydro-2H-13lambda6-pyrazolo[3′,4′:4,5][1,2,8]thiadiazacycloundecino[6,7,8-hi]indole-8-carboxylic acid (Mixture of Stereoisomers)]
IC50 (MCL-1): 0.0011 µM
EC50 (SUDHL5 [2]; 3 hours): 0.015 µM
EC50 (SUDHL10 [3]; 3 hours): 0.027 µM
IC50 (SUDHL5 [7]): 0.0087 µM
IC50 (SUDHL10 [8]): 0.034 µM

IC50 (MCL-1): 0.0034 µM
EC50 (SUDHL5 [2]; 3 hours): 3.9 µM
EC50 (SUDHL10 [3]; 3 hours): 11 µM
IC50 (SUDHL5 [4]; 72 hours): 4.4e-06 M
IC50 (MV-4-11; 72 hours, listed as 02, read-out: Antiproli MV-4-11 [M] IC50): 8.63e-06 M
IC50 (MV-4-11; [9]): 1.17e-05 M
IC50 (A2780; 72 hours, listed as 02, read-out: Antiproli A2780 [M] IC50): > 3.3e-05 M
IC50 (A2780; [10]): 2.66e-05 M
Structure (SMILES): Cc1c2c(nn1C)CN(CCN1CCOCC1)S(=O)(=O)CCCn1c(C(=O)O)c(CCCOc3cccc4ccccc34)c3cccc-2c31 (single isomer, unassigned; enantiomer 1) [Example 2, 2,3-Dimethyl-14-[2-(morpholin-4-yl)ethyl]-7-{3-[(naphthalen-1-yl)oxy]propyl}-13,13-dioxo-10,11,12,13,14,15-hexahydro-2H-13λ^6-pyrazolo[3′,4′:4,5][1,2,8]thiadiazacycloundecino-[6,7,8-hi]indole-8-carboxylic acid-N-ethylethanamine salt (Enantiomer 1)]
IC50 (SUDHL5 [5]): 3.5e-06 M
IC50 (SUDHL10 [6]): 9.8e-06 M
